“And” between values parts separate entries of the source, which are not always exact repeats. Equal entries are not always repeated. “Also recorded” adds a separate entry of the source. Where two headings read alike, the source gives them in different places.
Key:
[1] = molecular target: γ-secretase (Aβ42) in H4/sw cell line (Homo sapiens, UniProt P49768+P49810); assay: Aβ42 AlphaLISA dose–response in H4/sw cells
Method: (§2) After three days of incubation, the medium was harvested, centrifuged and the supernatant was used for Aβ measurements by immunoassays.
(§3) To analyse GSM dose-responses and determine IC50 values for Aβ42 inhibition, secreted Aβ species of HEK293/sw cells were analysed by sandwich immunoassay (MSD) using SULFO-tagged C-terminal specific antibodies to Aβ37, Aβ38, Aβ40 and Aβ42 as described [25] or, in case of H4/sw cells by an Aβ42 AlphaLISA immunoassay kit according to the instructions of the supplier (PerkinElmer) as described [38]. Notch1 cleavage reporter assay was performed as described [38].
(§4) (A) The Aβ42-lowering effects of the GSMs used in this study were additionally characterised in dose-response curves on the H4/sw cell line, measuring Aβ42 levels after over-night incubations with an Aβ42-AlphaLisa. Effects of compounds on Notch1 processing were recorded using a Notch1 reporter assay. […] Means ± SEM of 4–7 independent experiments with 2 technical replicates each are shown. (B) IC50 values for Aβ42 calculated from the experiments in (A).

PS1 L166P = molecular target: T1, PS1 L166P (Mus musculus, UniProt P49769, L166P); assay: Photoaffinity labeling with RO6874585, WT or PS1 L166P KI MEF membrane fractions; type: binding
T1 construct: crosslinking efficiencies of PS1 NTF and PS1 CTF in WT or PS1 L166P KI MEF cell membranes; endogenous in cells; host or cells: membrane fractions of PS1 L166P knock-in MEF cells
Method: (§1) Membrane fractions of HEK293 or MEF cells were incubated with RO6874585 in the presence or absence of other GSMs used as competitor compounds as described previously. In brief, after photoactivation, samples were solubilised using SDS-containing buffer and the crosslinked proteins were pulled down with streptavidin-sepharose. Thereafter, samples were analysed by immunoblotting.

PS1 and PS2 NTF and CTF = assay: Photoaffinity labeling with RO6874585 and competition, HEK293 membrane fractions; type: binding, human; conditions: for Competition of RO6874585 crosslinking to presenilin: 100x excess of competitor
Method: as §1

Notch1 cleavage = Notch1 cleavage reporter assay (NICD release), HEK293-based reporter cell line; conditions: dose–response
Method: as §2, §3, §4

[2] = molecular target: T2, γ-secretase in WT (WT/WT) MEF cells (Mus musculus, UniProt P49769+Q61144); assay: Aβ species by Tris-Bicine urea SDS-PAGE/immunoblot, WT/WT MEF cells; conditions: RO-02 and RO7019009 500 nM, BPN-15606 360 nM; for Aβ40 (gel): WT MEF (genotype not given), RO5254601 2.5 µM; for Short species Aβ37 and Aβ38 (gel): WT MEF
[3] = test system: γ-secretase in heterozygous (WT/L166P) PS1 L166P KI MEF cells; assay: Aβ species by Tris-Bicine urea SDS-PAGE/immunoblot, heterozygous PS1 L166P KI MEF cells; conditions: for Aβ40 (gel): heterozygous KI MEF (genotype not given), RO5254601 2.5 µM; for Aβ40 (gel) / Short species Aβ37 and Aβ38 (gel): RO-02 and RO7019009 500 nM, BPN-15606 360 nM
[4] = molecular target: T3, endogenous γ-secretase in HEK293/sw cells (Homo sapiens, UniProt P49768+P49810); assay: Aβ dose–response in HEK293/sw cells, MSD sandwich immunoassay
Method: (§5) Possible effects of compound treatment to cell viability were recorded using the CytoTox-Glo cell viability assay (Promega) following the instructions of the manufacturer. […] After three days of incubation, the medium was harvested, centrifuged and the supernatant was used for Aβ measurements by immunoassays.
(§6) To analyse GSM dose-responses and determine IC50 values for Aβ42 inhibition, secreted Aβ species of HEK293/sw cells were analysed by sandwich immunoassay (MSD) using SULFO-tagged C-terminal specific antibodies to Aβ37, Aβ38, Aβ40 and Aβ42 as described [25] or, in case of H4/sw cells by an Aβ42 AlphaLISA immunoassay kit according to the instructions of the supplier (PerkinElmer) as described [38]. […] GSM effects on secreted Aβ species in conditioned medium of MEF KI cells or iPSC-derived neurons were either quantified by ELISA using end-specific C-terminal antibodies to Aβ38, Aβ40, Aβ42 and Aβ43 obtained from IBL [16, 53] or MSD sandwich-immunoassay (Aβ37, see above). Total Aβ in conditioned medium of iPSC-derived neurons were measured using MSD sandwich-immunoassay using anti-Aβ antibodies 2D8 (biotinylated, capture) and 4G8 (detection) as described previously [54].

[5] = molecular target: T4, γ-secretase in homozygous (L166P/L166P) PS1 L166P KI MEF cells (Mus musculus, UniProt P49769+Q61144, L166P); assay: Aβ species by Tris-Bicine urea SDS-PAGE/immunoblot, homozygous PS1 L166P KI MEF cells
Method: as §5, §6

[6] = molecular target: T2, γ-secretase in WT (WT/WT) MEF cells; assay: Secreted Aβ species by ELISA (IBL), WT/WT MEF cells; conditions: for Secreted Aβ38: RO7019009 500 nM
Description: Immortalised embryonic fibroblast cells from mice expressing human APP and either hetero- or homozygously knocked-in PS1 L166P [36] were generated as follows. For the production of mouse embryonic fibroblasts (MEF), all mice interbred were homozygous APP YAC transgenic mice. Primary MEFs were isolated from 14 days (E14) post-conception mouse embryos from the crossing of APP YAC × PSEN1 L166P (-/-) with APP YAC × PSEN1 L166P (-/-) mice to establish WT/WT MEF lines as well as APP YAC × PSEN1 L166P ( +/-) with APP YAC × PSEN1 L166P (+ / +) mice to establish WT/L166P and L166P/L166P MEF lines. […] The tissue was then triturated 5 times with a 1 ml pipet. Trypsin was inactivated by adding 25 ml of medium (DMEM with 25 mM glucose, 10% FBS, 100 U/ml penicillin, 100 μg/ml streptomycin, 0.25 μg/ml amphotericin B, 6 mM glutamine and 1.5 mM pyruvate). The cell suspension was passed through a cell strainer and centrifuged for 15 min at 200 g. The cell pellet was resuspended in fresh media and plated. After 24 h, media was changed again to eliminate dead cells and debris. To obtain immortalised MEF lines, primary cells at passage 2–3 were transfected (FuGENE6, Promega) with a plasmid containing the SV40 T antigen cDNA. Immortalised cells were selected from individual colonies and maintained in media containing 500 μg/ml of geneticin (G418). Cells were kept at 37 °C with 5% CO2 in a humidified incubator. MEFs from passage 10 + were used for all the experiments and cultured in DMEM supplemented with 10% FCS and G418 (200 µg/ml). […]
(§7) Possible effects of compound treatment to cell viability were recorded using the CytoTox-Glo cell viability assay (Promega) following the instructions of the manufacturer. […]
Immunoblot analysis of secreted Aβ was performed as described [52]. To analyse GSM dose-responses and determine IC50 values for Aβ42 inhibition, secreted Aβ species of HEK293/sw cells were analysed by sandwich immunoassay (MSD) using SULFO-tagged C-terminal specific antibodies to Aβ37, Aβ38, Aβ40 and Aβ42 as described [25] or, in case of H4/sw cells by an Aβ42 AlphaLISA immunoassay kit according to the instructions of the supplier (PerkinElmer) as described [38]. […] GSM effects on secreted Aβ species in conditioned medium of MEF KI cells or iPSC-derived neurons were either quantified by ELISA using end-specific C-terminal antibodies to Aβ38, Aβ40, Aβ42 and Aβ43 obtained from IBL [16, 53] or MSD sandwich-immunoassay (Aβ37, see above). Total Aβ in conditioned medium of iPSC-derived neurons were measured using MSD sandwich-immunoassay using anti-Aβ antibodies 2D8 (biotinylated, capture) and 4G8 (detection) as described previously [54]. […] Protein bands from immunoblots were quantified using the LAS-4000 image reader (Fujifilm Life Science) and Multi-Gauge V3.0 software for analysis.

[7] = test system: γ-secretase in heterozygous (WT/L166P) PS1 L166P KI MEF cells; assay: Secreted Aβ species by ELISA (IBL), heterozygous PS1 L166P KI MEF cells; conditions: for Aβ38 level in treated cells, % of total Aβ: GSM-1 2.5 µM, RO-02 500 nM, one range given for both compounds and both 'other genotypes'; for Combined pathogenic species (Aβ42 + Aβ43) / Secreted Aβ43: 24 h, RO7019009 500 nM, RO5254601 2.5 µM
Description: Immortalised embryonic fibroblast cells from mice expressing human APP and either hetero- or homozygously knocked-in PS1 L166P [36] were generated as follows. For the production of mouse embryonic fibroblasts (MEF), all mice interbred were homozygous APP YAC transgenic mice. Primary MEFs were isolated from 14 days (E14) post-conception mouse embryos from the crossing of APP YAC × PSEN1 L166P (-/-) with APP YAC × PSEN1 L166P (-/-) mice to establish WT/WT MEF lines as well as APP YAC × PSEN1 L166P ( +/-) with APP YAC × PSEN1 L166P (+ / +) mice to establish WT/L166P and L166P/L166P MEF lines. […] The tissue was then triturated 5 times with a 1 ml pipet. Trypsin was inactivated by adding 25 ml of medium (DMEM with 25 mM glucose, 10% FBS, 100 U/ml penicillin, 100 μg/ml streptomycin, 0.25 μg/ml amphotericin B, 6 mM glutamine and 1.5 mM pyruvate). The cell suspension was passed through a cell strainer and centrifuged for 15 min at 200 g. The cell pellet was resuspended in fresh media and plated. After 24 h, media was changed again to eliminate dead cells and debris. To obtain immortalised MEF lines, primary cells at passage 2–3 were transfected (FuGENE6, Promega) with a plasmid containing the SV40 T antigen cDNA. Immortalised cells were selected from individual colonies and maintained in media containing 500 μg/ml of geneticin (G418). Cells were kept at 37 °C with 5% CO2 in a humidified incubator. MEFs from passage 10 + were used for all the experiments and cultured in DMEM supplemented with 10% FCS and G418 (200 µg/ml). […] H4 cells overexpressing APPsw (H4/sw) and HEK293-based Notch1 reporter cell lines were cultured as described [38].
as §5
Immunoblot analysis of secreted Aβ was performed as described [52]. To analyse GSM dose-responses and determine IC50 values for Aβ42 inhibition, secreted Aβ species of HEK293/sw cells were analysed by sandwich immunoassay (MSD) using SULFO-tagged C-terminal specific antibodies to Aβ37, Aβ38, Aβ40 and Aβ42 as described [25] or, in case of H4/sw cells by an Aβ42 AlphaLISA immunoassay kit according to the instructions of the supplier (PerkinElmer) as described [38]. Notch1 cleavage reporter assay was performed as described [38]. GSM effects on secreted Aβ species in conditioned medium of MEF KI cells or iPSC-derived neurons were either quantified by ELISA using end-specific C-terminal antibodies to Aβ38, Aβ40, Aβ42 and Aβ43 obtained from IBL [16, 53] or MSD sandwich-immunoassay (Aβ37, see above). Total Aβ in conditioned medium of iPSC-derived neurons were measured using MSD sandwich-immunoassay using anti-Aβ antibodies 2D8 (biotinylated, capture) and 4G8 (detection) as described previously [54]. […] Protein bands from immunoblots were quantified using the LAS-4000 image reader (Fujifilm Life Science) and Multi-Gauge V3.0 software for analysis.

[8] = molecular target: T4, γ-secretase in homozygous (L166P/L166P) PS1 L166P KI MEF cells; assay: Secreted Aβ species by ELISA (IBL), homozygous PS1 L166P KI MEF cells; conditions: GSM-1 2.5 µM, RO-02 500 nM, one range printed for both compounds, measurable in half of the samples
Description: Immortalised embryonic fibroblast cells from mice expressing human APP and either hetero- or homozygously knocked-in PS1 L166P [36] were generated as follows. For the production of mouse embryonic fibroblasts (MEF), all mice interbred were homozygous APP YAC transgenic mice. Primary MEFs were isolated from 14 days (E14) post-conception mouse embryos from the crossing of APP YAC × PSEN1 L166P (-/-) with APP YAC × PSEN1 L166P (-/-) mice to establish WT/WT MEF lines as well as APP YAC × PSEN1 L166P ( +/-) with APP YAC × PSEN1 L166P (+ / +) mice to establish WT/L166P and L166P/L166P MEF lines. […] The tissue was then triturated 5 times with a 1 ml pipet. […]
as §7
Immunoblot analysis of secreted Aβ was performed as described [52]. To analyse GSM dose-responses and determine IC50 values for Aβ42 inhibition, secreted Aβ species of HEK293/sw cells were analysed by sandwich immunoassay (MSD) using SULFO-tagged C-terminal specific antibodies to Aβ37, Aβ38, Aβ40 and Aβ42 as described [25] or, in case of H4/sw cells by an Aβ42 AlphaLISA immunoassay kit according to the instructions of the supplier (PerkinElmer) as described [38]. […]

[9] = molecular target: T3, endogenous γ-secretase in HEK293/sw cells; parameters: endogenous γ-secretase in HEK293/sw cells; endogenous in cells; host or cells: HEK293/sw (HEK293 stably expressing APPsw); conditions: read-out: IC50 (Aβ42); cited from earlier work
[10] = test system: iPSC-derived cortical neurons (total Aβ); assay: Total Aβ by MSD sandwich immunoassay (2D8/4G8) in iPSC-derived neurons; conditions: WT, heterozygous and homozygous neurons, 3 days; RO7019009 500 nM or 2.5 µM, RO5254601 2.5 µM
Method: as §5, §6

[11] = molecular target: γ-secretase in homozygous L166P/L166P iPSC-derived cortical neurons (Homo sapiens, UniProt P49768+P49810, L166P); assay: Secreted Aβ species by immunoassays, homozygous PS1 L166P KI iPSC-derived neurons; conditions: 3 days
Method: as §5
(§8) Immunoblot analysis of secreted Aβ was performed as described [52]. To analyse GSM dose-responses and determine IC50 values for Aβ42 inhibition, secreted Aβ species of HEK293/sw cells were analysed by sandwich immunoassay (MSD) using SULFO-tagged C-terminal specific antibodies to Aβ37, Aβ38, Aβ40 and Aβ42 as described [25] or, in case of H4/sw cells by an Aβ42 AlphaLISA immunoassay kit according to the instructions of the supplier (PerkinElmer) as described [38].

[12] = molecular target: γ-secretase in WT iPSC-derived cortical neurons (Homo sapiens, UniProt P49768+P49810); assay: Secreted Aβ species by immunoassays, WT iPSC-derived cortical neurons; conditions: 3 days, RO7019009 500 nM or 2.5 µM, RO5254601 2.5 µM
Method: The media was exchanged (NM/DOX) for the next two days. […] On day 6 and 9 cells were fed with NM/DOX complemented with 300 ng/ml puromycin dihydrochloride (puro, VWR, Cat. No. J593). Afterwards, the medium was switched to NM supplemented with 5 μM 5-fluorouracil (5FU, Sigma, Cat. No. F6627) with half feeds to remove the remaining dividing stem and neuron precursor cells. From day 13, cells were grown in NB (Neurobasal, penicillin–streptomycin) with B27 Plus (Thermo Fisher, Cat. No. A3582801) and 5FU. 5FU was removed in the following feeds. The cells were grown until day 24 before treatment started and analysed at day 27.
as §7
Immunoblot analysis of secreted Aβ was performed as described [52]. […] GSM effects on secreted Aβ species in conditioned medium of MEF KI cells or iPSC-derived neurons were either quantified by ELISA using end-specific C-terminal antibodies to Aβ38, Aβ40, Aβ42 and Aβ43 obtained from IBL [16, 53] or MSD sandwich-immunoassay (Aβ37, see above). Total Aβ in conditioned medium of iPSC-derived neurons were measured using MSD sandwich-immunoassay using anti-Aβ antibodies 2D8 (biotinylated, capture) and 4G8 (detection) as described previously [54]. […]

[13] = test system: γ-secretase in heterozygous WT/L166P iPSC-derived cortical neurons; assay: Secreted Aβ species by immunoassays, heterozygous PS1 L166P KI iPSC-derived neurons; conditions: 3 days, RO7019009 500 nM or 2.5 µM, RO5254601 2.5 µM
Method: as §5, §8

brain-derived cell lines = test system: brain-derived cell lines; parameters: method as in PMID 31762188; conditions: read-out: IC50 (Aβ42); cited from earlier work
[14] = read-out: Aβ42 IC50 [nM ± SD], H4/sw cells, over-night incubation, Aβ42-AlphaLisa, 4–7 independent experiments

## O=C(CCCC[C@@H]1SC[C@@H]2NC(=O)N[C@@H]21)NCCOCCOCCOCCNC(=O)COc1ccc(C(=O)c2ccc(OCC(=O)N3CC[C@@H](Oc4ccc5[nH]c(C(=O)Nc6ccc(F)c(F)c6)cc5c4)C3)cc2)cc1 [RO6874585]
[1]; H4/sw cells
  Aβ42 lowering: lowering Aβ42
[1]; [14]
  IC50: 128 ± 44.7 nM
PS1 L166P
  Photoaffinity labeling of PS1 L166P versus WT: without apparent differences to the WT
PS1 and PS2 NTF and CTF; UV crosslinking, streptavidin pull-down, immunoblot
  Proteins labeled by photoaffinity probe: PS1 and PS2 NTF and CTF as specific targets
Notch1 cleavage
  Notch1 cleavage / NICD release: without inhibiting Notch1 processing

## COc1nc(-c2cc(C)c(N[C@@H](C)c3ccc(F)cc3)nn2)ccc1-n1cnc(C)c1 [BPN-15606, reference compound]
[2]
  Aβ40 (gel): strong reduction of Aβ40
  Short species Aβ37 and Aβ38 (gel): increase of both short species, Aβ37 and Aβ38
[3]
  Aβ40 (gel): strong reduction of Aβ40
[4]; IC50 (Aβ42), 16–18 h, MSD sandwich immunoassay, this study
  IC50: ~12 nM and 12 nM
[1]
  IC50: 16.9 ± 8.22 nM
[5]; BPN-15606 500 nM
  Aβ43 (gel): strong reduction of Aβ43
[6]; 24 h, BPN-15606 360 nM
  Secreted Aβ42: reduced Aβ42 levels
  Secreted Aβ38: increase of Aβ38

## C[C@H](NC(=O)Cc1cc(F)cc(F)c1)C(=O)N[C@@H]1C(=O)N(C)c2ccccc2-c2ccccc21 [DBZ, dibenzazepine, reference compound]
[1]; [14]
  IC50: 0.33 ± 0.01 nM
Notch1 cleavage
  Notch1 cleavage / NICD release: reduced the levels of the Notch1 intracellular domain

## COc1cc(Nc2nc(Cc3ccc(Cl)cc3)cc(C(C)(C)O)n2)ccc1-n1cnc(C)c1 [RO-02, reference compound]
[2]
  Aβ40 (gel): strong reduction of Aβ40
  Short species Aβ37 and Aβ38 (gel): increase of both short species, Aβ37 and Aβ38
[7]
  Aβ38 level in treated cells, % of total Aβ: 30–60%
[3]
  Aβ40 (gel): strong reduction of Aβ40
[3]; heterozygous KI MEF
  Short species Aβ37 and Aβ38 (gel): increase of both short species, Aβ37 and Aβ38
[8]
  Aβ38 level in treated cells, % of total Aβ: 6–8%
[1]
  IC50: 20.5 ± 4.38 nM
[9]
  IC50: ~15 nM and 15 nM
PS1 and PS2 NTF and CTF
  Competition of RO6874585 crosslinking to presenilin: did not or only weakly compete binding
[6]; GSM-1 2.5 µM, RO-02 500 nM, one range given for both compounds and both 'other genotypes'
  Aβ38 level in treated cells, % of total Aβ: 30–60%

## CC(C)CCC(c1ccc(Cl)cc1)N1CCC(CC(=O)O)CC1c1ccc(C(F)(F)F)cc1 (stereo not drawn) [GSM-1, reference compound]
[7]
  Aβ38 level in treated cells, % of total Aβ: 30–60%
PS1 and PS2 NTF and CTF
  Competition of RO6874585 crosslinking to presenilin: did not or only weakly compete binding

## CC(=O)N1CCCC(c2ccc3[nH]c(C(=O)Nc4cc(F)cc(F)c4)cc3c2)C1 (stereo not drawn) [RO5254601]
[2]
  Aβ40 (gel): little effect on Aβ40
[7]
  Combined pathogenic species (Aβ42 + Aβ43): lower the ratio of combined pathogenic species
  Secreted Aβ43: could not lower Aβ43
[3]
  Aβ40 (gel): little effect on Aβ40
[10]
  Total Aβ levels: without affecting total Aβ levels
[11]; RO5254601 2.5 µM
  Long species (Aβ42 + Aβ43), overall fraction / sum: not reduced; also recorded: barely reduced the sum of long Aβ42 and Aβ43 species
[4]; dose–response
  Aβ37 production: increased Aβ37
  Aβ38 production: increased the production of Aβ38
  Aβ40 production: largely unaffected
[1]
  IC50: 63.3 ± 24.1 nM
[12]
  Effect on Aβ species profile: primarily acted on Aβ42 and Aβ38
PS1 and PS2 NTF and CTF
  Competition of RO6874585 crosslinking to presenilin: competed with presenilin binding of RO6874585
[13]
  Secreted Aβ42: reduced only Aβ42
  Secreted Aβ43: had no effect on Aβ43
[5]; RO5254601 2.5 µM
  Aβ42 (gel): markedly lowering Aβ42
Notch1 cleavage
  Notch1 cleavage / NICD release: did not impair Notch1 cleavage

## CC(C)N1CCCC(c2ccc3[nH]c(C(=O)Nc4cccc(F)c4)cc3c2)C1 (stereo not drawn) [RO5218165]
[1]; [14]
  IC50: 207 ± 32.4 nM
PS1 and PS2 NTF and CTF
  Competition of RO6874585 crosslinking to presenilin: differential competition for NTF and CTF binding

## Cc1nsc(N2CC3CCC(C2)C3Nc2nc3c(-c4ccc(F)c(F)c4F)cccn3n2)n1 (stereo not drawn) [RO7019009]
brain-derived cell lines
  IC50: ≥ 2 nM
[2]
  Aβ40 (gel): strong reduction of Aβ40
  Short species Aβ37 and Aβ38 (gel): increase of both short species, Aβ37 and Aβ38
[7]
  Combined pathogenic species (Aβ42 + Aβ43): effective lowering of the generation of total pathogenic Aβ42/43 species
  Secreted Aβ43: only potently effective compound in lowering Aβ43
[3]
  Aβ40 (gel): strong reduction of Aβ40
[3]; heterozygous KI MEF, RO7019009 500 nM
  Processivity: ratio of shorter Aβ37/38 combined with Aβ40 to longer Aβ42/43 species: increased processivity
[3]; heterozygous KI MEF
  Short species Aβ37 and Aβ38 (gel): increase of both short species, Aβ37 and Aβ38
[10]
  Total Aβ levels: without affecting total Aβ levels
[11]; RO7019009 500 nM or 2.5 µM
  Effect on Aβ species profile: efficiently reduced not only Aβ40 but also Aβ43 and, especially at higher concentrations, Aβ42
[1]
  IC50: 3.76 ± 0.6 nM
[9]
  IC50: ~14 nM and 14 nM
[12]
  Effect on Aβ species profile: reduced Aβ40 and Aβ42 while increasing both shorter species Aβ37 and Aβ38
PS1 and PS2 NTF and CTF
  Competition of RO6874585 crosslinking to presenilin: differential competition for NTF and CTF binding
[13]
  Secreted Aβ42: reduced both Aβ42 and Aβ43
  Secreted Aβ43: reduced both Aβ42 and Aβ43
[5]; RO7019009 500 nM
  Aβ38 (gel): increased generation of Aβ38
  Processivity: ratio of shorter Aβ37/38 combined with Aβ40 to longer Aβ42/43 species: increased processivity
[6]; 24 h, BPN-15606 360 nM
  Secreted Aβ38: strongly increased Aβ38

## CC(C)N1CCC(Oc2ccc3[nH]c(C(=O)Nc4ccc(F)c(F)c4)cc3c2)C1 (stereo not drawn) [RO5218863]
[1]; [14]
  IC50: 229 ± 69.8 nM
PS1 and PS2 NTF and CTF
  Competition of RO6874585 crosslinking to presenilin: competed with presenilin binding
